One substance from paper PMC6199492, “Comprehensive Characterization of Toxoplasma Acyl Coenzyme A-Binding Protein TgACBP2 and Its Critical Role in Parasite Cardiolipin Metabolism” (mBio, 2018) can be followed below.

This assay has as its target T1, TgACBP2 (Toxoplasma gondii, UniProt A0A7J6JZP9).
T1 construct: gene TGRH88_042420; recombinant TgACBP2 with C-terminal GST tag (tag kept), expressed in E. coli and purified; native HA-tagged protein ~36 kDa
T1 sequence (A0A7J6JZP9 1-311): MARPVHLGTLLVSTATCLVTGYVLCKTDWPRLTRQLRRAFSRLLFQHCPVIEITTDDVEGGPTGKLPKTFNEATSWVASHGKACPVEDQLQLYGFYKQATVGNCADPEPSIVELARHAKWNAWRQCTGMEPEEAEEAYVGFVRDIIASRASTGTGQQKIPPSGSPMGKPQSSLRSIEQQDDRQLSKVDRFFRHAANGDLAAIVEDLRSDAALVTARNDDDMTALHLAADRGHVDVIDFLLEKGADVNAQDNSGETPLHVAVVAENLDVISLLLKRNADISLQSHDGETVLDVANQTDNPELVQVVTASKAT
Briefly: fluorescence increase of NBD ligand upon binding, microplate reader. As to conditions: labelled compound; 0.1 μM TgACBP2-GST, 0-0.25 μM ligand, PBS, room temperature, 5 min; ex 460 nm, em 540 nm; read-out: K (binding constant).

On to NBD-C16:0-CoA, for which the Kd is 136 nM.
